Data: patent US12209087B2, “AKT1 modulators” (Alterome Therapeutics, Inc., priority 2022, dated 2025)
pIC50: −log10 of the molar value.

Molecular target: T1, full length AKT E17K (Homo sapiens, UniProt P31749, E17K)
T1 construct: host or cells: HEK-293 (ATCC CRL-1573)
Test: NanoBRET Target Engagement (TE) Assay
Assay type: cell-based
Details: competitive displacement of tracer in cells, read-out: AKT1 E17K IC50
Method in brief: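 Compound and tracer incubated 2 h before luminescence at donor 450 nm and acceptor 600 nm, with extracellular signal inhibited. EC50 by sigmoidal variable-slope regression.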

T1 sequence (P31749 whole entry E17K): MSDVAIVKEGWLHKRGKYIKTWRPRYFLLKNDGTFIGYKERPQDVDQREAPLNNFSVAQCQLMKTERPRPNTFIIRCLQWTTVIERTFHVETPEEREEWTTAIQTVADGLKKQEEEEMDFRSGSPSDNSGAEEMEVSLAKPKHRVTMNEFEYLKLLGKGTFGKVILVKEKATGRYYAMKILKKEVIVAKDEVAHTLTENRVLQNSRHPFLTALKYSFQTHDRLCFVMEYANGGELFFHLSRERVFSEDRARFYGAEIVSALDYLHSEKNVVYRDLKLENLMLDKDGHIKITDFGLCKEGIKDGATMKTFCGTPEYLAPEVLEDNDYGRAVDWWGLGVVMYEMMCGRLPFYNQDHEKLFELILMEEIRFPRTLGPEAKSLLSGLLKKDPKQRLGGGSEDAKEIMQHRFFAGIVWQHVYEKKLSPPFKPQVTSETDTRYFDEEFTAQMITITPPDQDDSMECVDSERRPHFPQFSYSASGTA

Row | pIC50 | Compound
1 | > 7.82 | N#CCn1ncc(-c2ccc3nc(-c4nccnc4N)n(-c4ccc(CN5CCC(Nc6ccnc(C#N)n6)CC5)cc4)c3n2)n1 [Example 632, 4-((1-(4-(2-(3-Aminopyrazin-2-yl)-5-(2-(cyanomethyl)-2H-1,2,3-triazol-4-yl)-3H-imidazo[4,5-b]pyridin-3-yl)benzyl)piperidin-4-yl)amino)pyrimidine-2-carbonitrile]
2 | 7.22 to 7.82 | N#Cc1nccc(NC2CCN(Cc3ccc(-n4c(-c5nccnc5N)nc5ccc(-c6cnn(CC(N)=O)n6)nc54)cc3)CC2)n1 [Example 633, 2-(4-(2-(3-aminopyrazin-2-yl)-3-(4-((4-((2-cyanopyrimidin-4-yl)amino)piperidin-1-yl)methyl)phenyl)-3H-imidazo[4,5-b]pyridin-5-yl)-2H-1,2,3-triazol-2-yl)acetamide]
3 | > 7.82 | [2H]c1nn(C)nc1-c1ccc2nc(-c3nccnc3N)n(-c3ccc(CN4CCC(Nc5ccnc(C#N)n5)CC4)cc3)c2n1 [Example 634, 4-((1-(4-(2-(3-Aminopyrazin-2-yl)-5-(2-methyl-2H-1,2,3-triazol-4-yl-5-d)-3H-imidazo[4,5-b]pyridin-3-yl)benzyl)piperidin-4-yl)amino)pyrimidine-2-carbonitrile]
4 | 7.22 to 7.82 | Cc1nn(C)nc1-c1ccc2nc(-c3nccnc3N)n(-c3ccc(CN4CCC(Nc5ccnc(C#N)n5)CC4)cc3)c2n1 [Example 635, 4-((1-(4-(2-(3-Aminopyrazin-2-yl)-5-(2,5-dimethyl-2H-1,2,3-triazol-4-yl)-3H-imidazo[4,5-b]pyridin-3-yl)benzyl)piperidin-4-yl)amino)pyrimidine-2-carbonitrile]
5 | > 7.82 | COc1ccc(-c2ccc3nc(-c4nccnc4N)n(-c4ccc(CN5CCC(Nc6ccnc(C#N)n6)CC5)cc4)c3n2)cn1 [Example 636, 4-((1-(4-(2-(3-Aminopyrazin-2-yl)-5-(6-methoxypyridin-3-yl)-3H-imidazo[4,5-b]pyridin-3-yl)benzyl)piperidin-4-yl)amino)pyrimidine-2-carbonitrile]
6 | > 7.82 | [2H]C([2H])([2H])Oc1ccc(-c2ccc3nc(-c4nccnc4N)n(-c4ccc(CN5CCC(Nc6ccnc(C#N)n6)CC5)cc4)c3n2)cn1 [Example 637, 4-((1-(4-(2-(3-aminopyrazin-2-yl)-5-(6-(methoxy-d3)pyridin-3-yl)-3H-imidazo[4,5-b]pyridin-3-yl)benzyl)piperidin-4-yl)amino)pyrimidine-2-carbonitrile]
7 | > 7.82 | [2H]C([2H])([2H])Oc1ccc(-c2ccc3nc(-c4nccnc4N)n(-c4ccc(CN5CCC(Nc6ccnc(C#N)n6)CC5)cc4)c3n2)nc1 [Example 638, 4-((1-(4-(2-(3-Aminopyrazin-2-yl)-5-(5-(methoxy-d3)pyridin-2-yl)-3H-imidazo[4,5-b]pyridin-3-yl)benzyl)piperidin-4-yl)amino)pyrimidine-2-carbonitrile]
8 | > 7.82 | N#Cc1nccc(NC2CCN(Cc3ccc(-n4c(-c5nccnc5N)nc5ccc(-c6ccc(OCF)nc6)nc54)cc3)CC2)n1 [Example 639, 4-((1-(4-(2-(3-Aminopyrazin-2-yl)-5-(6-(fluoromethoxy)pyridin-3-yl)-3H-imidazo[4,5-b]pyridin-3-yl)benzyl)piperidin-4-yl)amino)pyrimidine-2-carbonitrile]
9 | > 7.82 | [2H]C([2H])(F)Oc1ccc(-c2ccc3nc(-c4nccnc4N)n(-c4ccc(CN5CCC(Nc6ccnc(C#N)n6)CC5)cc4)c3n2)cn1 [Example 640, 4-((1-(4-(2-(3-Aminopyrazin-2-yl)-5-(6-(fluoromethoxy-d2)pyridin-3-yl)-3H-imidazo[4,5-b]pyridin-3-yl)benzyl)piperidin-4-yl)amino)pyrimidine-2-carbonitrile]
10 | > 7.82 | N#Cc1nccc(NC2CCN(Cc3ccc(-n4c(-c5cccnc5N)nc5ccc(-c6ccc(OC7CC7)nc6)nc54)cc3)CC2)n1 [Example 641, 4-((1-(4-(2-(2-Aminopyridin-3-yl)-5-(6-cyclopropoxypyridin-3-yl)-3H-imidazo[4,5-b]pyridin-3-yl)benzyl)piperidin-4-yl)amino)pyrimidine-2-carbonitrile]
11 | > 7.82 | CC(C)Oc1ccc(-c2ccc3nc(-c4cccnc4N)n(-c4ccc(CN5CCC(Nc6ccnc(C#N)n6)CC5)cc4)c3n2)cn1 [Example 642, 4-((1-(4-(2-(2-Aminopyridin-3-yl)-5-(6-isopropoxypyridin-3-yl)-3H-imidazo[4,5-b]pyridin-3-yl)benzyl)piperidin-4-yl)amino)pyrimidine-2-carbonitrile]
12 | > 7.82 | CC(C)c1ccc(-c2ccc3nc(-c4cccnc4N)n(-c4ccc(CN5CCC(Nc6ccnc(C#N)n6)CC5)cc4)c3n2)cn1 [Example 643, 4-((1-(4-(2-(2-Aminopyridin-3-yl)-5-(6-isopropylpyridin-3-yl)-3H-imidazo[4,5-b]pyridin-3-yl)benzyl)piperidin-4-yl)amino)pyrimidine-2-carbonitrile]
13 | > 7.82 | N#Cc1nccc(NC2CCN(Cc3ccc(-n4c(-c5cccnc5N)nc5ccc(-c6ccc(C7CC7)cn6)nc54)cc3)CC2)n1 [Example 644, 4-((1-(4-(2-(2-Aminopyridin-3-yl)-5-(5-cyclopropylpyridin-2-yl)-3H-imidazo[4,5-b]pyridin-3-yl)benzyl)piperidin-4-yl)amino)pyrimidine-2-carbonitrile]

Second part, the compound before the results:

Row | Compound | pIC50
14 | N#Cc1nccc(NC2CCN(Cc3ccc(-n4c(-c5cccnc5N)nc5ccc(-c6cnn(C(F)F)n6)nc54)cc3)CC2)n1 [Example 620, 4-((1-(4-(2-(2-Aminopyridin-3-yl)-5-(2-(difluoromethyl)-2H-1,2,3-triazol-4-yl)-3H-imidazo[4,5-b]pyridin-3-yl)benzyl)piperidin-4-yl)amino)pyrimidine-2-carbonitrile] | > 7.82
15 | [2H]C([2H])([2H])n1ncc(-c2ccc3nc(-c4nccnc4N)n(-c4ccc(CN5CCC(Nc6ccnc(C#N)n6)CC5)cc4)c3n2)n1 [Example 621, 4-((1-(4-(2-(3-Aminopyrazin-2-yl)-5-(2-(methyl-d3)-2H-1,2,3-triazol-4-yl)-3H-imidazo[4,5-b]pyridin-3-yl)benzyl)piperidin-4-yl)amino)pyrimidine-2-carbonitrile] | > 7.82
16 | N#Cc1nccc(NC2CCN(Cc3ccc(-n4c(-c5conc5N)nc5ccc(-c6ccc(F)cn6)nc54)cc3)CC2)n1 [Example 622, 4-((1-(4-(2-(3-Aminoisoxazol-4-yl)-5-(5-fluoropyridin-2-yl)-3H-imidazo[4,5-b]pyridin-3-yl)benzyl)piperidin-4-yl)amino)pyrimidine-2-carbonitrile] | 6.22 to 7.22
17 | [2H]C([2H])(F)Oc1ccc(-c2ccc3nc(-c4cccnc4N)n(-c4ccc(CN5CCC(Nc6ccnc(C#N)n6)CC5)cc4)c3n2)cn1 [Example 623, 4-((1-(4-(2-(2-Aminopyridin-3-yl)-5-(6-(fluoromethoxy-d2)pyridin-3-yl)-3H-imidazo[4,5-b]pyridin-3-yl)benzyl)piperidin-4-yl)amino)pyrimidine-2-carbonitrile] | > 7.82
18 | [2H]C([2H])(F)n1cc(-c2ccc3nc(-c4cccnc4N)n(-c4ccc(CN5CCC(Nc6ccnc(C#N)n6)CC5)cc4)c3n2)ccc1=O [Example 624, 4-((1-(4-(2-(2-Aminopyridin-3-yl)-5-(1-(fluoromethyl-d2)-6-oxo-1,6-dihydropyridin-3-yl)-3H-imidazo[4,5-b]pyridin-3-yl)benzyl)piperidin-4-yl)amino)pyrimidine-2-carbonitrile] | 7.22 to 7.82
19 | CCn1cc(-c2ccc3nc(-c4cccnc4N)n(-c4ccc(CN5CCC(Nc6ccnc(C#N)n6)CC5)cc4)c3n2)nn1 [Example 625, 4-((1-(4-(2-(2-Aminopyridin-3-yl)-5-(1-ethyl-1H-1,2,3-triazol-4-yl)-3H-imidazo[4,5-b]pyridin-3-yl)benzyl)piperidin-4-yl)amino)pyrimidine-2-carbonitrile] | > 7.82
20 | N#CCn1ncc(-c2ccc3nc(-c4cccnc4N)n(-c4ccc(CN5CCC(Nc6ccnc(C#N)n6)CC5)cc4)c3n2)n1 [Example 626, 4-((1-(4-(2-(2-Aminopyridin-3-yl)-5-(2-(cyanomethyl)-2H-1,2,3-triazol-4-yl)-3H-imidazo[4,5-b]pyridin-3-yl)benzyl)piperidin-4-yl)amino)pyrimidine-2-carbonitrile] | > 7.82
21 | N#Cc1nccc(NC2CCN(Cc3ccc(-n4c(-c5nccnc5N)nc5ccc(-c6cnn(CF)n6)nc54)cc3)CC2)n1 [Example 627, 4-((1-(4-(2-(3-Aminopyrazin-2-yl)-5-(2-(fluoromethyl)-2H-1,2,3-triazol-4-yl)-3H-imidazo[4,5-b]pyridin-3-yl)benzyl)piperidin-4-yl)amino)pyrimidine-2-carbonitrile] | > 7.82
22 | N#Cc1nccc(NC2CCN(Cc3ccc(-n4c(-c5nccnc5N)nc5ccc(-c6cn(CF)nn6)nc54)cc3)CC2)n1 [Example 628, 4-((1-(4-(2-(3-Aminopyrazin-2-yl)-5-(1-(fluoromethyl)-1H-1,2,3-triazol-4-yl)-3H-imidazo[4,5-b]pyridin-3-yl)benzyl)piperidin-4-yl)amino)pyrimidine-2-carbonitrile] | > 7.82
23 | CCn1ncc(-c2ccc3nc(-c4nccnc4N)n(-c4ccc(CN5CCC(Nc6ccnc(C#N)n6)CC5)cc4)c3n2)n1 [Example 629, 4-((1-(4-(2-(3-Aminopyrazin-2-yl)-5-(2-ethyl-2H-1,2,3-triazol-4-yl)-3H-imidazo[4,5-b]pyridin-3-yl)benzyl)piperidin-4-yl)amino)pyrimidine-2-carbonitrile] | > 7.82
24 | CC(C)n1ncc(-c2ccc3nc(-c4nccnc4N)n(-c4ccc(CN5CCC(Nc6ccnc(C#N)n6)CC5)cc4)c3n2)n1 [Example 630, 4-((1-(4-(2-(3-Aminopyrazin-2-yl)-5-(2-isopropyl-2H-1,2,3-triazol-4-yl)-3H-imidazo[4,5-b]pyridin-3-yl)benzyl)piperidin-4-yl)amino)pyrimidine-2-carbonitrile] | > 7.82
25 | N#Cc1nccc(NC2CCN(Cc3ccc(-n4c(-c5nccnc5N)nc5ccc(-c6cnn(C7CC7)n6)nc54)cc3)CC2)n1 [Example 631, 4-((1-(4-(2-(3-Aminopyrazin-2-yl)-5-(2-cyclopropyl-2H-1,2,3-triazol-4-yl)-3H-imidazo[4,5-b]pyridin-3-yl)benzyl)piperidin-4-yl)amino)pyrimidine-2-carbonitrile] | > 7.82
